The results in this text go back to ChEMBL document CHEMBL4033638, “Effect of natural and semi-synthetic cadinanes from Heterotheca inuloides on NF-κB, Nrf2 and STAT3 signaling pathways and evaluation of their in vitro cytotoxicity in human cancer cell lines” (Bioorg Med Chem, 2017).

For this experiment, the system named is HaCaT. As to the kind of experiment: Antioxidant activity in human HaCaT cells assessed as inhibition of TBHP-induced ROS accumulation by measuring ROS level preincubated with cells followed by TBHP addition by CM-H2DCFDA dye-based fluorescence assay relative to control. Type of experiment: functional. More on the design: scale not given: the % may be the effect or the level left.

In the case of `CC(=O)N[C@@H](CS)C(=O)O` [ACETYLCYSTEINE], the Activity was found to be 1%.
